Paper PMC4259018 (MedChemComm, 2014)

What was measured:
mPTPB = mPTPB (Mycobacterium tuberculosis, UniProt I6WXK4); assay: mPTPB catalyzed para-nitrophenyl phosphate hydrolysis inhibition; type: biochemical; details: for activity at 100 μM: 100 μM compound
[1] = test system: mPTPB transfected Raw264.7 cells; type: cell-based; details: 10 μM
human PTPs = assay: Specificity for mPTPB over panel of human PTPs; type: biochemical; details: mPTPB versus PTP1B, SHP2, SHP1, PTP-Meg2, CD45, PTPε, VHR, Laforin

Chain of mPTPB (I6WXK4 whole entry, looked up): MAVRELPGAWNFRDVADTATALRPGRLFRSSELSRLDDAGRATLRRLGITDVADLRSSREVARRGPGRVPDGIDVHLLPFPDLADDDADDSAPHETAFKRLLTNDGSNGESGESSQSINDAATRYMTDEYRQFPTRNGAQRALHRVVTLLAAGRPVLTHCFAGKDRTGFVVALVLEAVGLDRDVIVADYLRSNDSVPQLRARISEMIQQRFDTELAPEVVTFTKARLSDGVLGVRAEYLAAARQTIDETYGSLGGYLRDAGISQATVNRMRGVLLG

O=C(O)c1cc2sc(Nc3ccccc3)nc2cc1O [11a] was tested, and the “fold more active than 11b” value (mPTPB) was 3 fold and the “effects on Erk1/2 and Akt phosphorylation” value [1] was “has no such effects”.
In the case of O=C(O)c1cc2sc(Nc3cccc(Br)c3)nc2cc1O [11h], the Ki (mPTPB) is reported as 2.2 ± 0.1 µM, the “fold increase in potency in comparison to 11a” value (mPTPB) is reported as 12 fold and the mode of inhibition (mPTPB; mPTPB, against pNPP) is reported as “noncompetitive inhibitor”. For the same compound, the “fold improvement of salicylic acid mPTPB inhibitory activity” value (mPTPB; mPTPB, versus salicylic acid) was 27,500 fold, the Akt phosphorylation ([1]; 5 μM, dose dependent) was “decreased” and the Erk1/2 phosphorylation ([1]; 5 μM, dose dependent) was “increased”. For the same compound, the “fold preference for mPTPB against human PTPs” value (human PTPs) was “over 20 fold”.
In the case of O=C(O)c1cc2[nH]c(=O)oc2cc1O [compound 6], the “activity at 100 μM” value (mPTPB; mPTPB) is reported as “did not exhibit activity”.
O=C1COc2cc(O)c(C(=O)O)cc2N1 [compound 7] was tested, and the “activity at 100 μM” value (mPTPB; mPTPB) was “did not exhibit activity”.
With O=C(O)CN1CC(=O)Oc2cc(O)c(C(=O)O)cc21 [compound 8] the “activity at 100 μM” value (mPTPB; mPTPB) was “did not exhibit activity”.
Work on O=C(O)c1cc2nc(-c3ccccc3)oc2cc1O [compound 9] yielded an IC50 (mPTPB) of 20 to 30 µM.
In the case of O=C(O)c1cc2[nH]c(-c3ccccc3)nc2cc1O [compound 10], the IC50 (mPTPB) is reported as 20 to 30 µM.
